Source: a melting point compilation (Tetko et al.; mined from patent text by program, amines drawn as free bases though some values may be those of a salt)

Row | melting point [°C] | SMILES
1 | 207 to 209 | O=C(NC(=O)c1c(F)cccc1F)Nc1cc(Cl)c(Oc2ccc(S(=O)(=O)c3ccc(Cl)cc3)cc2)c(Cl)c1
2 | 162 to 165 | O=C(NCc1ccc(Cl)cc1)c1ccc2cccnc2c1O
3 | 155 to 157 | Nc1cnccc1Oc1ccc2[nH]ccc2c1
4 | 170 to 173 | C/C(=C\C(=O)Nc1ccccc1C(=O)O)c1ccc(OC(F)F)c(OC(F)F)c1
5 | 215 to 217 | COc1cc(Nc2c(C#N)cnc3cc(-c4ccc(CCN5CCOCC5)cc4)c(OC)cc23)c(Cl)cc1Cl
6 | 222 to 225 | COc1cccc2c(Nc3cccc(N(C)C)c3)c(C#N)cnc12
7 | 156 to 157 | COC(=O)c1cc(C(=O)NN)c2cc(Cc3ccc(F)cc3)cnc2c1O
8 | 199 to 200 | Cc1cc(-c2nc3cccnn3c2-c2ccnc(NC(=O)c3ccoc3)c2)ccc1F
9 | 140 to 141 | O=C1Nc2ccc(C#CCCN3CCC(Cc4ccccc4)CC3)cc2C1=O
10 | 208 to 210 | Cc1cc(C)c(Nc2nc(C)ccc2S(=O)(=O)c2ccc(OCc3ccccc3C#N)cc2)c(C)c1
11 | 181 to 182 | COC(=O)c1ccc2cc(-c3ccc(C(=O)OC)c(C45CC6CC(CC(C6)C4)C5)c3)ccc2c1
12 | 130 to 132 | CCOc1cc2nc(NC)nc(-c3cccc(Br)c3)c2cc1OCC
13 | 155 to 160 | CC(NC(=O)c1sc2ccc(C(F)(F)F)cc2c1O)=C(c1ccccc1)c1ccccc1
14 | 164 to 165 | COC(=O)COc1ccc(C(=O)CN2CCN(c3ccncc3)CC2=O)cc1
15 | 140 to 142 | CCNc1ccc(S(=O)c2ccccc2)cc1N (stereo unspecified)
16 | 255 to 257 | O=C(O)CNC(=O)c1cc(-c2ccc3c(c2)OCO3)c2c3c(ccc2c1)OCO3
17 | 97 to 98 | O=Cc1cn(Cc2ccc(OCc3ccccc3)cc2)nc1-c1ccc(F)cc1
18 | 79 to 82 | CCOc1ccc(C(c2ccc(C(C)(C)C)cc2)C(C)[N+](=O)[O-])cc1 (stereo unspecified)
19 | 179 to 181 | C[C@]12CCC(=O)N[C@@H]1CCc1cc(Sc3ccc(F)cc3)ccc12
20 | 161 to 164 | O=C(O)c1ccc(Oc2ccc(Cl)cc2)cc1
21 | 166 to 167 | COc1ccc(CCCC(=O)Nc2c(C)c(C)c3c(c2C)C(c2ccc(C)cc2)C(C)(C)O3)cc1 (stereo unspecified)
22 | 161 to 164 | O=c1ccc(C(F)(F)F)cn1-c1ccc(NCCO)cc1Cl
23 | 117 to 120 | Cc1nc(N2CCN(c3ccc(F)cc3)CC2)c(C#N)nc1-c1ccccc1
24 | 113 to 117 | COc1cc(CCCCCCC2OC(=O)NC2=O)ccc1OCc1nc(-c2ccccc2)oc1C (stereo unspecified)
25 | 150 | CC1N=C(c2ccccc2)OC(c2ccccc2)C1OC(=O)Nc1ccccc1 (stereo unspecified)
26 | 205 | Nc1nccc(Oc2ccc3c(C(=O)O)cccc3c2)n1
27 | 170 to 172 | CCCOc1nc2cccc(C(=O)O)c2n1Cc1ccc(-c2ccccc2-c2nc(=O)o[nH]2)cc1
28 | 204 to 205 | COc1ccccc1-n1c(-c2cc(-c3ccncc3)c(N3CCOCC3)s2)nc2ccccc2c1=O

Row | melting point [°C] | SMILES
29 | 179 | Cc1cc2cc(CN3CCC(CCCC(=O)N4CCCCC4)CC3)cnc2cc1NC(=O)c1ccc(-c2ccc(F)cc2)cc1
30 | > 250 | CS(=O)(=O)Nc1cc2oc(N)c(C(N)=O)c(=O)c2cc1Oc1ccccc1
31 | 72 to 74 | O=C(CCCc1ccccc1)N(O)Cc1ccccc1
32 | 108 to 110 | O=C(CCc1cccc(F)c1F)c1cnc2sc3c(n12)CCCCC3
33 | 138 to 144 | O=C(CSc1ccncc1)Nc1cccc(-c2ccnc3c(C(=O)c4cccs4)cnn23)c1
34 | 173 | COc1cc(CN2C(=N)c3cc(-c4ccc(F)cc4F)ccc3S2(=O)=O)ccn1
35 | 153 to 154 | Cc1oc(-c2ccccc2)nc1CCc1nc(COc2cccc(CC(=O)O)c2)cs1
36 | 104 | O=C(O)CCCCCOc1cc(-c2ccccc2)cc(-c2ccccc2)c1
37 | 193 to 195 | Cc1ccccc1-c1cn(C)cc(-c2cccc(C(F)(F)F)c2)c1=S
38 | 58 to 64 | CCCCCCCCNC(=O)N1CCC(Nc2ccc(CCNC[C@H](O)COc3ccc(F)cc3)cc2)CC1
39 | 66 to 72 | CC(C)C(NC(=O)Cn1cc(Cc2ccc(F)cc2)cc(NC(=O)OCc2ccccc2)c1=O)C(=O)C(F)(F)F (stereo unspecified)
40 | 103 to 105 | O=c1c(Cc2ccccc2)c2n(c(=O)n1CCCCCl)CCCS2(=O)=O
41 | 80 to 81 | CC(=O)c1ccc(OCCNC(=O)OCc2ccccc2)cc1
42 | 150 | COC(=O)[C@@H](Cc1ccccc1)Nc1cc(-c2ccc(OCc3ccccc3)cc2)ncn1
43 | 60.5 to 61.6 | CCCCCCn1c(-c2ccc3c(c2)OCO3)nc2ccccc21
44 | 232 to 234 | CC1(C)CC(=O)c2c(Oc3ccccc3)sc(-c3cc[nH]n3)c2C1
45 | 77 to 78 | CC(O)CCc1ccc2c(c1)C(=O)c1ccccc1-2 (stereo unspecified)
46 | 130 to 133 | Clc1ccc(Cn2cnc3c(Cl)ncnc32)cc1Cl
47 | 211 to 215 | NS(=O)(=O)c1ccc(NN=C2C(=O)Nc3ccc(C(=O)NCc4ccncc4)cc32)cc1
48 | > 230 | O=C(O)c1ccc(C(c2cc(F)ccc2F)S(=O)(=O)c2ccc(Cl)cc2)nc1 (stereo unspecified)
49 | 221 to 222 | CCc1[nH]n(C2CCCC2)c2nc(-c3ccccc3)nc(=O)c1-2
50 | 181 to 183 | COC(=O)CNC(=O)[C@H](CSC(=O)c1ccccc1)NC(=O)CNC(=S)CC(=O)c1ccccc1
51 | 247 to 248 | O=C(Nc1ccc(F)cc1F)Nc1cnc2cc3c(cc2c1-c1ccccc1Cl)CCC3
52 | 263 to 265 | CC(C)(C)OC(=O)C[C@H](NC(=O)c1cccc(NC(=O)C(Cc2ccc(C(=N)N)cc2)NC(=O)OC(C)(C)C)c1)C(=O)N[C@@H](Cc1cccc2ccccc12)C(=O)O (mixture of isomers)
53 | 225 to 227 | CC(C)c1ccc(N2Cc3ccc([N+](=O)[O-])cc3C2=O)cc1
54 | 187 to 189 | CCOc1cc2c(c3c1OC(C)(C)C3)C(c1ccccc1)=NC(C)(CN1C(=O)c3ccccc3C1=O)C2 (stereo unspecified)
55 | 64 to 70 | CC(C)(OCCCCCCCCc1csc(-c2ccccc2)n1)C(=O)O

Continued, compound first:

Row | SMILES | melting point [°C]
56 | NC(N)=NC(=O)Cn1c(Cl)c(Cl)c(Cl)c1Cl | 215 to 217
57 | CC(C)(C)OC(=O)CN1C(=O)SC(Cc2ccc(N3CCC(NCC(O)c4ccc(O)c(NS(C)(=O)=O)c4)CC3)cc2)C1=O (stereo unspecified) | 130 to 132
58 | O=[N+]([O-])c1cc2nc(Cl)c(Cl)nc2cc1Sc1ncc[nH]1 | > 300
59 | CCOC1OC(=O)CC1NC(=O)C1CCCN1C(=O)C(NC(=O)c1ccc(N)c(Cl)c1)C(C)(C)C (stereo unspecified) | 96 to 99
60 | COc1ccc(C(CN)C2CCCCC2O)cc1 (mixture of isomers) | 79 to 81
61 | COc1c(S(=O)(=O)Cl)ccc(Cl)c1CBr | 88 to 92
62 | COC(=O)c1ccc2c(ccn2C)c1 | 108 to 110
63 | CC(=O)Nc1ccc2c(c1)[C@@H](O)[C@H](Br)C(C)(C)O2 (relative stereo) | 170
64 | Cc1cc(NC(=O)c2c(Cl)cccc2Cl)c2nccc(N3CCN(C)C3=O)c2c1C | 213 to 216
65 | O=S(=O)(CC(F)(F)F)c1nc2cc(Cl)ccc2[nH]1 | 161 to 164
66 | CCc1c(C(=O)OC)c(C(F)(F)F)nc(C(F)(F)F)c1C(=O)OC | 45 to 47
67 | CCOC(=O)C(CCC#N)(C(=O)OCC)c1ncc(C)cc1[N+](=O)[O-] | 48 to 49
68 | CC(C)Sc1c(C(N)=O)sc2cccc(Cl)c12 | 182 to 184
69 | NCCOc1ncc(Cl)c(N)c1Cl | 115 to 116
70 | O=C(O)c1noc(-c2cnccc2C(F)(F)F)n1 | 157 to 159
71 | CC(C)CCCC(C)C1CCC2C3CCC4CC(NC(=O)C(COCc5ccccc5)NC(=O)OC(C)(C)C)CCC4(C)C3CCC12C (stereo unspecified) | 55 to 67
72 | Cc1c(C)c(S(=O)(=O)C[N+](=O)[O-])c(C)c2c1OC(C)(C)CC2 | 98 to 100
73 | CCOC(=O)C1=C(N)OC(C)=C(C(=O)OC)C1c1cc([N+](=O)[O-])ccc1Cl (stereo unspecified) | 159
74 | Nc1nc2c(c(N3CCNCC3)n1)SCCC2 | 176 to 178
75 | CC(C)[C@@H](CNC(=O)/C=C/c1ccccc1)NC(=O)OC(C)(C)C | 149 to 151
76 | CC(O)CNCC(O)COc1ccccc1C#N (stereo unspecified) | 108

Row | SMILES | melting point [°C]
77 | COC(=O)N(C)c1cc(C(C)(C)C)no1 | 70.5 to 71.5
78 | COC(=O)NCc1cc(OC)cc(Cl)c1Cl | 90 to 91
79 | COC(=O)CCCCCCCCOC1OC(CO)C(OC2OC(C)C(O)C(O)C2O)C(O)C1NC(C)=O (stereo unspecified) | 145 to 146
80 | CSc1ncnc2c(N(C)C3CCCCC3)nc(Cl)nc12 | 135 to 137
81 | CN(C)c1nn(-c2cc(F)c(C#N)cc2F)c(=O)n1C(F)F | 188 to 190
82 | CCOCCn1c(CN2CCN(CC#N)CC2)nc2cccnc21 | 80.7
83 | CC(C)NS(=O)(=O)NC(C)C | 98 to 101
84 | CC(=O)NCC1Cc2cccc3cccc1c23 (stereo unspecified) | 145
85 | Cc1nn(-c2ccc(Cl)c3c2CC(C)O3)c(=O)n1C(F)F (stereo unspecified) | 78 to 79
86 | Cc1nc2c(s1)CC(=O)CC2 | 95 to 96
87 | COC(=O)c1ccc(C(F)(F)F)cc1C#N | 52
88 | CC1(O[Si](C)(C)C(C)(C)C)CN(c2ccc(N3C[C@H](CO)OC3=O)cc2F)C1 | 144
89 | CCCOc1cc([N+](=O)[O-])ccc1Cl | 52 to 53
90 | COc1cc2c(cc1OC)C(c1ccccc1N)=NN=C(C)C2 | 172 to 174
91 | Cc1cccc2c1C=C(C(=O)O)C2C (stereo unspecified) | 190 to 193
92 | Oc1ccc2c(c1O)OCC(c1cccc(C(F)(F)F)c1)C2 (stereo unspecified) | 99 to 100
93 | O=C(Nc1ccc(-n2nc(C(F)(F)F)cc2C2CC2)nc1)c1c(Cl)cncc1Cl | 223 to 225
94 | CCCc1nn(C)c2c(=O)[nH]c(-c3cc(S(C)(=O)=O)ccc3OCC)nc12 | 235 to 236
95 | O=C(NC1CC2CCC1C2)n1cc(F)c(=O)[nH]c1=O (stereo unspecified) | 252 to 255
96 | CCOC(=O)c1nc(N)sc1C(=O)C(C)Br (stereo unspecified) | 158 to 160
